Measured values published in paper PMC7587383, “Pimarane Diterpenoids from the Seeds of Caesalpinia minax as PTP1B Inhibitors and Insulin Sensitizers” (Molecules, 2020).

Target: T1, Protein-tyrosine phosphatase 1B (PTP1B) (Homo sapiens, UniProt P18031)
T1 construct: gene PTPN1
T1 sequence (P18031 1-435): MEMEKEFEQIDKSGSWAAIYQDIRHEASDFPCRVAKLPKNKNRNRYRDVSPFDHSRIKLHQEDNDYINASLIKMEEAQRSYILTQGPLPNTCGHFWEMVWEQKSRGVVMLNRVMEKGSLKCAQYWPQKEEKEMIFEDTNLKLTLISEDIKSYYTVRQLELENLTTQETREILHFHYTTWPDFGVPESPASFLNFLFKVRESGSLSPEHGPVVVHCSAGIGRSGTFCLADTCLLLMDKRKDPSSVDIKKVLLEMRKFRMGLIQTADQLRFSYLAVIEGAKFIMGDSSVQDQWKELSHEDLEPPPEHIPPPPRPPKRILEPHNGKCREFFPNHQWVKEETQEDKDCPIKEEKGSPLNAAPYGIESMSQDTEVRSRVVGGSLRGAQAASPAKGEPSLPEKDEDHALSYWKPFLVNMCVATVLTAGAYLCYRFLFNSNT
Experiment: pNPP dephosphorylation assay with human recombinant PTP1B; Lineweaver-Burk and Dixon plots
Format: biochemical

SMILES: C=C[C@@]1(C)CCC2=C(C1)C(=O)C[C@H]1C(C)(C)C[C@H](O)C[C@]21C [compound 1, 2α-hydroxy-7-oxo-pimara-8(9),15-diene]
- Ki: 13.7 ± 2.72 µM
